Results as given in patent US11884642B2, “Compounds useful as potassium channel openers” (ACOUSIA THERAPEUTICS GMBH, priority 2017, dated 2024).

Test system: guinea pigs
Test: Ototoxic drug-induced (kanamycin/furosemide) hearing loss model in vivo, CAP threshold recordings of the auditory nerve
Parameters: species or system guinea pig
Method: The inventive compounds were also tested in vivo. In this context, for repeated recording of the Compound Action Potential (CAP) of the auditory nerve, guinea pigs were bilaterally implanted with a permanent gold electrode at the round window niche. The round window is an opening from the middle ear into the inner ear. The gold electrodes were connected to a miniature plug on the skull. During the experiments, audiograms were determined between 0.5 and 45.6 kHz, at a resolution of 8 steps per octave. An automated threshold search algorithm was applied.
After a baseline audiogram was measured, the animals were pretreated with an inventive compound, as an ion channel activator, via local application to the middle ear. The corresponding solution of the inventive compound was removed after an exposure time, e. g. after 2 hours. Then, the middle ear was rinsed and dried out before CAP recordings were performed to assess threshold shifts.
Then, deafness was induced with the Guinea pigs by local application to the middle ear of a mixture of at least one ototoxic agent and at least one inventive compound. E. g. kanamycin, furosemide or mixtures of these compounds can be used as ototoxic agents.
The resulting CAP response thresholds were compared to ears which were exposed to the ototoxic agents alone.
All animals received care in accordance with the standards described by the German ‘Law on Protecting Animals’ (Tierschutzgesetz) and with the European Directive 2010/63/EU for the protection of animals used for experimental purposes. Experiments were approved by the local authorities (Application HN03/15).
All procedures were performed under anesthesia using a mixture of Fentanyl, Midazolam and Medetomidine. During surgery and measurements animals were kept on a 37° C. heating pad. For repeated recording of the Compound Action Potential (CAP) of the auditory nerve, guinea pigs were bilaterally implanted with a permanent gold electrode at the round window (RW) niche connected to a miniature plug on the skull. Audiograms were determined between 0.5 and 45.6 kHz, at a resolution of 8 steps per octave. An automated threshold search algorithm was applied.
After a baseline audiogram was measured, animals were pretreated with an ion channel activator, in this case with ACOU001, via local application to the middle ear. […]
The solution containing ACOU001 was removed after 2 hours and the middle ear rinsed and dried out before CAP recordings were performed to assess threshold shifts. […] After the final measurement on day 21, animals were sacrificed, cochleae fixed by perfusion with 4% paraformaldehyde and prepared for immunohistological analysis to quantify hair cell (HC) protection.

In the case of O=C(NCc1ccc(S(F)(F)(F)(F)F)cc1)c1ccc(Cl)s1 [ACOU001, 5-Chloro-N-(4-(pentafluorosulfanyl)benzyl)thiophene-2-carboxamide], the “CAP curves (threshold levels) over time after co-treatment” value (7 and 21 days after kanamycin/furosemide plus compound) is reported as “shifted to higher threshold levels after seven days but ameliorated after 21 days”, the “reduction of hearing loss compared to the ototoxic drug alone” value (after 21 days, all frequencies, co-treatment with kanamycin/furosemide) is reported as 25-40 dB SPL and the “CAP-threshold loss after pretreatment” value (day 0, 2 hours local application to the middle ear, compared to baseline CAP-thresholds in untreated ears) is reported as “small, most likely conductive, hearing loss”. The “reduction of hearing loss compared to the ototoxic drug alone” value (day 0, mid to high frequencies (5-11 kHz), 100 μM with 200 mg/ml kanamycin, 50 mg/ml furosemide, local to middle ear) was roughly 25 dB SPL.
